Data taken from PubChem BioAssay (NCI).
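Growth conditions: 96-well plates. Treatment: test compound, 48 hours, 5 concentrations. Analysis: linear interpolation between bracketing concentrations; unreached endpoints set to highest concentration. GI50 marks 50% less growth. TGI marks complete inhibition of growth.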

Experiments:
Assay in all cases: growth of human tumour cells (NCI), 48 h
[1] = test system: 786-0 renal
[2] = test system: A498 renal
[3] = test system: A549 NSCLC
[4] = test system: ACHN renal
[5] = test system: CAKI-1 renal
[6] = test system: CCRF-CEM leukemia
[7] = test system: COLO 205 colon
[8] = test system: DLD-1 colon
[9] = test system: DMS 114 small cell lung
[10] = test system: DMS 273 small cell lung
[11] = test system: EKVX NSCLC
[12] = test system: HCC-2998 colon
[13] = test system: HCT-116 colon
[14] = test system: HCT-15 colon
[15] = test system: HL-60(TB) leukemia
[16] = test system: HOP-18 NSCLC
[17] = test system: HOP-62 NSCLC
[18] = test system: HOP-92 NSCLC
[19] = test system: HT29 colon
[20] = test system: IGROV1 ovarian
[21] = test system: K-562 leukemia
[22] = test system: KM12 colon
[23] = test system: KM20L2 colon
[24] = test system: LOX IMVI melanoma
[25] = test system: LXFL 529 NSCLC
[26] = test system: M14 melanoma
[27] = test system: M19-MEL melanoma
[28] = test system: MALME-3M melanoma
[29] = test system: MOLT-4 leukemia
[30] = test system: NCI-H226 lung
[31] = test system: NCI-H23 lung
[32] = test system: NCI-H460 lung
[33] = test system: NCI-H522 lung
[34] = test system: OVCAR-3 ovarian
[35] = test system: OVCAR-4 ovarian
[36] = test system: OVCAR-5 ovarian
[37] = test system: OVCAR-8 ovarian
[38] = test system: RPMI-8226 leukemia
[39] = test system: RXF 393 renal
[40] = test system: RXF-631 renal
[41] = test system: SF-268 CNS
[42] = test system: SF-295 CNS
[43] = test system: SF-539 CNS
[44] = test system: SK-MEL-2 melanoma
[45] = test system: SK-MEL-28 melanoma
[46] = test system: SK-MEL-5 melanoma
[47] = test system: SK-OV-3 ovarian
[48] = test system: SN12C renal
[49] = test system: SNB-19 CNS
[50] = test system: SNB-75 CNS
[51] = test system: SNB-78 CNS
[52] = test system: SW-620 colon
[53] = test system: TK-10 renal
[54] = test system: U251 CNS
[55] = test system: UACC-257 melanoma
[56] = test system: UACC-62 melanoma
[57] = test system: UO-31 renal
[58] = test system: XF 498 CNS
[59] = test system: SR leukemia

In the case of `CC[O-].Cc1ccc2cccc([O-])c2n1.Cc1ccc2cccc([O-])c2n1.Cc1ccc2cccc([O-])c2n1.[Ti+4]`, the GI50 [1] is reported as 28.9 µM, the TGI [1] is reported as over 57.9 µM and the GI50 [2] is reported as over 63.2 µM. For the same compound, the TGI [2] was over 100 µM, the GI50 [3] was 11.1 µM and the TGI [3] was 20.6 µM. For the same compound, the GI50 [4] was 50.3 µM, the TGI [4] was over 100 µM and the GI50 [5] was over 86.6 µM. The TGI [5] was over 100 µM, the GI50 [6] was 6.97 µM and the TGI [6] was 38.8 µM. The GI50 [7] was 19.5 µM, the TGI [7] was 39.8 µM and the GI50 [8] was 28.9 µM. It also gave a TGI [8] of over 81 µM, a GI50 [9] of 21.9 µM and a TGI [9] of over 59.3 µM. It also gave a GI50 [10] of over 33.3 µM, a TGI [10] of over 67.7 µM and a GI50 [11] of over 46 µM. For the same compound, the TGI [11] was over 73.5 µM, the GI50 [12] was 27.5 µM and the TGI [12] was over 67.8 µM. For the same compound, the GI50 [13] was 33.8 µM, the TGI [13] was over 100 µM and the GI50 [14] was 42.4 µM. It also gave a TGI [14] of over 100 µM, a GI50 [15] of 3.3 µM and a TGI [15] of 16 µM. For the same compound, the GI50 [16] was 41.1 µM, the TGI [16] was over 92.6 µM and the GI50 [17] was 53.6 µM. For the same compound, the TGI [17] was over 100 µM, the GI50 [18] was over 100 µM and the TGI [18] was over 100 µM. It also gave a GI50 [19] of 30.6 µM, a TGI [19] of over 88.9 µM and a GI50 [20] of 43.2 µM. The TGI [20] was over 100 µM, the GI50 [21] was 11.7 µM and the TGI [21] was 52.2 µM. It also gave a GI50 [22] of 20.9 µM, a TGI [22] of 74.8 µM and a GI50 [23] of over 54.2 µM. The TGI [23] was over 100 µM, the GI50 [24] was 18.2 µM and the TGI [24] was 47.9 µM. The GI50 [25] was 24.8 µM, the TGI [25] was over 49.3 µM and the GI50 [26] was 22.2 µM. For the same compound, the TGI [26] was over 53.5 µM, the GI50 [27] was 14 µM and the TGI [27] was 27.7 µM. The GI50 [28] was over 46 µM, the TGI [28] was over 66.3 µM and the GI50 [29] was 6.07 µM. The TGI [29] was 35.8 µM, the GI50 [30] was over 59.6 µM and the TGI [30] was over 100 µM. The GI50 [31] was over 63.5 µM, the TGI [31] was over 100 µM and the GI50 [32] was 20.2 µM. For the same compound, the TGI [32] was over 100 µM, the GI50 [33] was 14 µM and the TGI [33] was 30.4 µM. It also gave a GI50 [34] of 34.1 µM, a TGI [34] of over 100 µM and a GI50 [35] of 25 µM. For the same compound, the TGI [35] was over 68.3 µM, the GI50 [36] was over 65 µM and the TGI [36] was over 100 µM. For the same compound, the GI50 [37] was 12.4 µM, the TGI [37] was 47.1 µM and the GI50 [38] was 11.5 µM. For the same compound, the TGI [38] was 49.5 µM, the GI50 [39] was 30.9 µM and the TGI [39] was 70.9 µM. The GI50 [40] was 18.8 µM, the TGI [40] was over 65.4 µM and the GI50 [41] was over 83.5 µM. The TGI [41] was over 100 µM, the GI50 [42] was 17.5 µM and the TGI [42] was over 62 µM. It also gave a GI50 [43] of 40.4 µM, a TGI [43] of over 100 µM and a GI50 [44] of 22.9 µM. The TGI [44] was over 57.5 µM, the GI50 [45] was over 65.2 µM and the TGI [45] was over 100 µM. For the same compound, the GI50 [46] was 22.6 µM, the TGI [46] was 52 µM and the GI50 [47] was over 68.9 µM. The TGI [47] was over 100 µM, the GI50 [48] was 65.3 µM and the TGI [48] was over 100 µM. For the same compound, the GI50 [49] was over 53.9 µM, the TGI [49] was over 100 µM and the GI50 [50] was 63.8 µM. It also gave a TGI [50] of over 100 µM, a GI50 [51] of 59.7 µM and a TGI [51] of over 100 µM. The GI50 [52] was 29.6 µM, the TGI [52] was over 61.1 µM and the GI50 [53] was 44.2 µM. For the same compound, the TGI [53] was over 83.9 µM, the GI50 [54] was 18.3 µM and the TGI [54] was 50.4 µM. It also gave a GI50 [55] of 18.6 µM, a TGI [55] of over 85 µM and a GI50 [56] of over 35.3 µM. For the same compound, the TGI [56] was over 52.2 µM, the GI50 [57] was over 100 µM and the TGI [57] was over 100 µM. It also gave a GI50 [58] of 17.3 µM and a TGI [58] of 58.3 µM.
`O=C(O)C1CCCCN1C(=O)c1ccccc1` (configuration not stated) was tested, and the TGI [1] was over 100 µM, the TGI [2] was over 100 µM and the TGI [3] was over 100 µM. For the same compound, the TGI [4] was over 100 µM, the TGI [6] was over 100 µM and the TGI [7] was over 100 µM. The TGI [8] was over 100 µM, the TGI [9] was over 100 µM and the TGI [10] was over 100 µM. The TGI [11] was over 100 µM, the TGI [12] was over 100 µM and the TGI [13] was over 100 µM. The TGI [14] was over 100 µM, the TGI [15] was over 100 µM and the TGI [16] was over 100 µM. The TGI [17] was over 100 µM, the TGI [18] was over 100 µM and the TGI [19] was over 100 µM. For the same compound, the TGI [20] was over 100 µM, the TGI [21] was over 100 µM and the TGI [22] was over 100 µM. The TGI [23] was over 100 µM, the TGI [24] was over 100 µM and the TGI [25] was over 100 µM. The TGI [26] was over 100 µM, the TGI [27] was over 100 µM and the TGI [28] was over 100 µM. For the same compound, the TGI [29] was over 100 µM, the TGI [31] was over 100 µM and the TGI [32] was over 100 µM. For the same compound, the TGI [34] was over 100 µM, the TGI [35] was over 100 µM and the TGI [36] was over 100 µM. It also gave a TGI [37] of over 100 µM, a TGI [38] of over 100 µM and a TGI [39] of over 100 µM. It also gave a TGI [40] of over 100 µM, a TGI [41] of over 100 µM and a TGI [42] of over 100 µM. The TGI [43] was over 100 µM, the TGI [45] was over 100 µM and the TGI [46] was over 100 µM. It also gave a TGI [47] of over 100 µM, a TGI [48] of over 100 µM and a TGI [49] of over 100 µM. It also gave a TGI [50] of over 100 µM, a TGI [51] of over 100 µM and a TGI [59] of over 100 µM. For the same compound, the TGI [52] was over 100 µM, the TGI [53] was over 100 µM and the TGI [54] was over 100 µM. It also gave a TGI [55] of over 100 µM, a TGI [56] of over 100 µM and a TGI [57] of over 100 µM. The TGI [58] was over 100 µM.
In the case of `Cc1cc(C)cc(Sc2c([N+](=O)[O-])ncn2C)c1`, the TGI [1] is reported as 76.8 µM, the TGI [2] is reported as 77.1 µM and the TGI [3] is reported as over 100 µM. It also gave a TGI [4] of over 100 µM, a TGI [5] of 89.2 µM and a TGI [6] of over 100 µM. For the same compound, the TGI [7] was 31.8 µM, the TGI [8] was 27.5 µM and the TGI [9] was 34.4 µM. For the same compound, the TGI [10] was 25.8 µM, the TGI [11] was over 100 µM and the TGI [12] was 92.7 µM. For the same compound, the TGI [13] was 32.4 µM, the TGI [16] was 14.4 µM and the TGI [17] was over 100 µM. For the same compound, the TGI [18] was 41.7 µM, the TGI [19] was 38.7 µM and the TGI [20] was 55.1 µM. For the same compound, the TGI [21] was over 100 µM, the TGI [22] was 53.8 µM and the TGI [23] was over 100 µM. It also gave a TGI [24] of 25.6 µM, a TGI [25] of 40.9 µM and a TGI [26] of 27.6 µM. The TGI [27] was 84.1 µM, the TGI [28] was 25.3 µM and the TGI [29] was 38.2 µM. The TGI [30] was 22 µM, the TGI [31] was 33.3 µM and the TGI [32] was over 100 µM. The TGI [33] was 20 µM, the TGI [34] was 34.3 µM and the TGI [35] was 44.1 µM. For the same compound, the TGI [36] was 53.5 µM, the TGI [37] was 29.7 µM and the TGI [38] was over 100 µM. For the same compound, the TGI [40] was 51.3 µM, the TGI [41] was 33.9 µM and the TGI [42] was 70.8 µM. For the same compound, the TGI [43] was 20.9 µM, the TGI [44] was 25.8 µM and the TGI [45] was 30 µM. For the same compound, the TGI [46] was 26.7 µM, the TGI [47] was 75.5 µM and the TGI [48] was 31.8 µM. It also gave a TGI [49] of over 100 µM, a TGI [50] of 62.5 µM and a TGI [51] of 58.9 µM. For the same compound, the TGI [59] was 41 µM, the TGI [52] was 41.4 µM and the TGI [53] was 72.4 µM. The TGI [54] was 36.7 µM, the TGI [55] was 27.7 µM and the TGI [56] was 29.8 µM. It also gave a TGI [57] of 85.9 µM and a TGI [58] of 59.5 µM.
